# From patent US20250171430A1, “PYRAZOLYL COMPOUNDS AS KV7 CHANNEL ACTIVATORS” (Biohaven Therapeutics Ltd., priority 2022, published 2025)
# Target: T1, Kv7.2/7.3 (Homo sapiens, UniProt O43525+O43526)
# T1 construct: Kv7.2 tetracycline-induced, Kv7.3 constitutive
# Assay: Kv7.2/7.3 Activation Assay (Thallium Flux Assay)
# Type: cell-based
# Settings: hKV7.2/7.3 cell line; test compound at single concentration of 10 μM; fluorescence at 90 sec normalized to positive control (retigabine, 30 μM)
# Outline: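 Single-point activity at 10 μM (0.1% DMSO, HEPES-buffered saline, pH 7.4) was scored from fluorescence at 90 s relative to 30 μM retigabine. Categories were none <0.15, moderate 0.15-0.7 and high >0.7. Thallium influx after stimulus addition was followed with FluxOR II Green dye in hKv7.2/7.3 cells, Kv7.2 expressed under overnight tetracycline (10 ng/mL) induction.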
row,SMILES,Kv7.2/7.3 Activity
1,"Cn1nc(NC(=O)C(C)(O)c2ccccc2)c(C2CCC2)c1-c1ccc(OC(F)(F)F)cc1 (stereo not drawn) [Compound 182, N-(4-cyclobutyl-1-methyl-5-(4-(trifluoromethoxy)phenyl)-1H-pyrazol-3-yl)-2-hydroxy-2-phenylpropanamide]",++ (“++” High Activity ≥ 0.7)
2,"Cn1nc(NC(=O)[C@H]2CC2(F)F)c(C2CCC2)c1-c1ccc(OC(F)(F)F)cc1 [Compound 173, (R)-N-(4-cyclobutyl-1-methyl-5-(4-(trifluoromethoxy)phenyl)-1H-pyrazol-3-yl)-2,2-difluorocyclopropane-1-carboxamide]",− (“−” No Activity < 0.15)
3,"CCOC(=O)Nc1nn(C)c(-c2ccc(F)cc2)c1C1CCC1 [Compound 75, ethyl (4-cyclobutyl-5-(4-fluorophenyl)-1-methyl-1H-pyrazol-3-yl)carbamate]",+ (“+” Moderate Activity 0.15-0.7)
4,"Cn1nc(NC(=O)CC2(C(F)(F)F)CC2)c(C2CCC2)c1C1CCCCC1 [Compound 69, N-(4-cyclobutyl-5-cyclohexyl-1-methyl-1H-pyrazol-3-yl)-2-(1-(trifluoromethyl)cyclopropyl)acetamide]",+ (“+” Moderate Activity 0.15-0.7)
5,"O=C(Nc1nn(CCO)c(-c2ccc(Cl)s2)c1C1CCC1)C1CC(F)(F)C1 [Compound 229, N-(5-(5-chlorothiophen-2-yl)-4-cyclobutyl-1-(2-hydroxyethyl)-1H-pyrazol-3-yl)-3,3-difluorocyclobutane-1-carboxamide]",++ (“++” High Activity ≥ 0.7)
6,"Cn1nc(NC(=O)Cc2ccc(F)c(F)c2)c(C2CCC2)c1-c1ccc(F)cc1 [Compound 91, N-(4-cyclobutyl-5-(4-fluorophenyl)-1-methyl-1H-pyrazol-3-yl)-2-(3,4-difluorophenyl)acetamide]",+ (“+” Moderate Activity 0.15-0.7)
7,"COc1ccc(-c2c(C3CCC3)c(NC(=O)C[C@@H]3CC(F)(F)C3(F)F)nn2C)cc1 [Compound 56, (R)-N-(4-cyclobutyl-5-(4-methoxyphenyl)-1-methyl-1H-pyrazol-3-yl)-2-(2,2,3,3-tetrafluorocyclobutyl)acetamide]",++ (“++” High Activity ≥ 0.7)
8,"Cn1nc(NC(=O)C[C@@H]2CC(F)(F)C2(F)F)c(C2CCC2)c1-c1cnc(C(F)(F)F)s1 [Compound 59, (R)-N-(4-cyclobutyl-1-methyl-5-(2-(trifluoromethyl)thiazol-5-yl)-1H-pyrazol-3-yl)-2-(2,2,3,3-tetrafluorocyclobutyl)acetamide]",+ (“+” Moderate Activity 0.15-0.7)
9,"Cn1nc(NC(=O)C[C@@H]2CC(F)(F)C2(F)F)c(C2CCC2)c1Cc1ccccc1 [Compound 15, (R)-N-(5-benzyl-4-cyclobutyl-1-methyl-1H-pyrazol-3-yl)-2-(2,2,3,3-tetrafluorocyclobutyl)acetamide]",++ (“++” High Activity ≥ 0.7)
10,"C[C@H](C(=O)Nc1nn(C)c(-c2ccc(F)cc2)c1C1CCC1)C1CC(F)(F)C1 [Compound 129, (S)-N-(4-cyclobutyl-5-(4-fluorophenyl)-1-methyl-1H-pyrazol-3-yl)-2-(3,3-difluorocyclobutyl)propanamide]",++ (“++” High Activity ≥ 0.7)
11,"Cn1nc(NC(=O)NC2CC(F)(F)C2)c(C2CCC2)c1-c1ccc(F)c(F)c1 [Compound 213, 1-(4-cyclobutyl-5-(3,4-difluorophenyl)-1-methyl-1H-pyrazol-3-yl)-3-(3,3-difluorocyclobutyl)urea]",++ (“++” High Activity ≥ 0.7)
12,"Cn1nc(NC(=O)OCC2CC(F)(F)C2)c(C2CCC2)c1-c1ccc(F)cc1 [Compound 243, (3,3-difluorocyclobutyl)methyl (4-cyclobutyl-5-(4-fluorophenyl)-1-methyl-1H-pyrazol-3-yl)carbamate]",++ (“++” High Activity ≥ 0.7)
